The numbers were not newly measured in US20230172901A1, “COMPOSITIONS AND METHODS FOR THE PROPHYLAXIS AND TREATMENT OF FIBROTIC AND INFLAMMATORY CONDITIONS” (GRETALS AUSTRALIA PTY LTD, priority 2020, published 2023), which cites them from elsewhere.

Structures are written as SMILES.

In this data set the test system is IPF patients. The settings on record: prior art, cited from earlier work.

Regarding `COC(=O)c1ccc2c(c1)NC(=O)/C2=C(\Nc1ccc(N(C)C(=O)CN2CCN(C)CC2)cc1)c1ccccc1` [Nintendanib], for the setting “IPF patients”, the “quality of life / respiratory parameters” value was “can improve quality of life” and the survival result is recorded as “do not improve survival”.

Turning to `Cc1ccc(=O)n(-c2ccccc2)c1` [Perfenidone], the side effects result is “provokes a range of side effects in the skin, gastrointestinal tract, liver, and nervous system”. The progression-free survival result (IPF patients) is reported as “improve progression-free survival”.
